# Columns and labels:
# normal rats = experiment: Facial pain threshold of normal rats (von Frey); assay type: in vivo, rat; settings: 10 nmol injected into trigeminal ganglion, vs. solvent group
# Protocol: Before the behavioral test, the rats were housed in a plexiglass box on a wire mesh frame to acclimate to the environment for three consecutive days, for 1 h each time. Test method: The middle part of the whisker pad was stimulated with von Frey filament at 1 g. If there were 3 escapes in 5 consecutive stimulations, the response was positive. Then, the same operation was repeated with von Frey filament at a lower level of intensity. If there was no positive response, the middle part of the whisker pad was stimulated with von Frey filament at a higher level of intensity. The minimum intensity at which a positive response occurs is taken as the facial pain threshold, that is, the facial mechanical pain threshold. • 1. Effect of miloxacin on the facial pain threshold of normal rats (without CFA induction): 20 normal rats were divided into two groups, each having 10 rats. The first group was a solvent group, and the second group was a treatment group. 10 nmol miloxacin was injected into the trigeminal ganglion of the second group of rats, and the corresponding solvent DMSO was injected into the trigeminal ganglion of the first group of rats.
# [1] = molecular target: T1, T-type calcium channel subtype Cav3.1 (Homo sapiens, UniProt O43497); experiment: Whole-cell voltage clamp of Cav3.1 current in transfected HEK293 cells; assay type: cell-based
# T1 construct: expressed in transfected cells; host or cells: HEK293 cells
# T1 sequence (O43497 1-2171 isoform O43497-5): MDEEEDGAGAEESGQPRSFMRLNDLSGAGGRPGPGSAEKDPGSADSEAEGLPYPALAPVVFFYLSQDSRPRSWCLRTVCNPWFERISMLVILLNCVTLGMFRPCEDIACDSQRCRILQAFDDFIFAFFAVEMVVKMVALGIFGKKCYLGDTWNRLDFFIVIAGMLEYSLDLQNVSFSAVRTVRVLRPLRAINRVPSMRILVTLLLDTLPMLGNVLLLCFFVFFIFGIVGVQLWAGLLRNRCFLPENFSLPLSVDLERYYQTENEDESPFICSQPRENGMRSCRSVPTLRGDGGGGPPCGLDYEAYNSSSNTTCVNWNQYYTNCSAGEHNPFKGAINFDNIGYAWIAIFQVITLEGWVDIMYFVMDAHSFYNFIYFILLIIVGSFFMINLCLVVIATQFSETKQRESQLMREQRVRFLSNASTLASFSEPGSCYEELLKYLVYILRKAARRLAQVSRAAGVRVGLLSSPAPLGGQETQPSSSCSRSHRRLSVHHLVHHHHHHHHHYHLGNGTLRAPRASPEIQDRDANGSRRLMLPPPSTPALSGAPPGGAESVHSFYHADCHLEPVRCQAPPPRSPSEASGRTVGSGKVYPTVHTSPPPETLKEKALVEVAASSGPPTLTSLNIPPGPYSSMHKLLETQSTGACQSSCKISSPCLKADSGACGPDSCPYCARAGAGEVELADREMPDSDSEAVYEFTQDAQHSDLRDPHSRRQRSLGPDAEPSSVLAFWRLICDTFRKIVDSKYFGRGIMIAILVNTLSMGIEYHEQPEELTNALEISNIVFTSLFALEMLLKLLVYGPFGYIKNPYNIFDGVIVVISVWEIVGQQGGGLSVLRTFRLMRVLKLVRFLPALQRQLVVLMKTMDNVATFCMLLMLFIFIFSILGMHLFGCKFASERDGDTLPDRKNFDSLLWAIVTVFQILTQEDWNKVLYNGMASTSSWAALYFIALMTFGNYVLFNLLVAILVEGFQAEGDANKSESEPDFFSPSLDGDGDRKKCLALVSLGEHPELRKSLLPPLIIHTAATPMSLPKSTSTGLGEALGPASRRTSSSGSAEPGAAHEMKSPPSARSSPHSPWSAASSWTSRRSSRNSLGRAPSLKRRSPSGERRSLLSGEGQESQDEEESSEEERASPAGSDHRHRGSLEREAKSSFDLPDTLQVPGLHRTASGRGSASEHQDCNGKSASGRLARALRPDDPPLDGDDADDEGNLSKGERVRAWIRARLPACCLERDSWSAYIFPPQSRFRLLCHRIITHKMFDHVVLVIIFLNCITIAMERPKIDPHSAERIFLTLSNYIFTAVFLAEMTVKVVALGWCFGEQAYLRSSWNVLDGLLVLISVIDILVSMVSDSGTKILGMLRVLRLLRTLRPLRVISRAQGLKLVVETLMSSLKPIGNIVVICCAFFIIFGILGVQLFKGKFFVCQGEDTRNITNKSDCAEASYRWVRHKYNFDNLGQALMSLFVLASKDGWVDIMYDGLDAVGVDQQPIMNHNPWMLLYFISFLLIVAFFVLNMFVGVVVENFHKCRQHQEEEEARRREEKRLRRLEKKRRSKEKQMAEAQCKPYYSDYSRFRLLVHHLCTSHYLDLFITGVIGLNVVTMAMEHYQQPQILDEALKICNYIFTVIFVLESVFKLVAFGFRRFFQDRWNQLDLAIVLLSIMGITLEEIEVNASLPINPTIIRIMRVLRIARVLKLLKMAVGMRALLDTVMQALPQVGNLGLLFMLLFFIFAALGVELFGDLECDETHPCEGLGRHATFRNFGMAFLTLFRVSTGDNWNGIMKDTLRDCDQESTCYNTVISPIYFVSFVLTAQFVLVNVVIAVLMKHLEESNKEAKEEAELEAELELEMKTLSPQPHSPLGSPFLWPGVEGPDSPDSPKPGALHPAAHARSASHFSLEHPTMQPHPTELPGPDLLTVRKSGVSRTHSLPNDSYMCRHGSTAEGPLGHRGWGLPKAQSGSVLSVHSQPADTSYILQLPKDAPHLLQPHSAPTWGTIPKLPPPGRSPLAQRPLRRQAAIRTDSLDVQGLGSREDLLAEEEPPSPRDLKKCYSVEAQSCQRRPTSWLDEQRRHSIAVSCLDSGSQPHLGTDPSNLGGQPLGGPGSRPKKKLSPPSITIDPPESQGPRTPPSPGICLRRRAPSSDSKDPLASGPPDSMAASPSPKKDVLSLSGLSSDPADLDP
# Protocol: (§1) 1. Preparation before transfection: A flask of HEK293 cell culture was removed of the culture medium, and gently washed twice by adding 3 ml of a phosphate buffer. Then, the cells were digested by adding 1 ml of 0.25% trypsin, and pipetted by adding DMEM medium after 3-5 min to collect the cells. The cells were centrifuged at 1000 rpm for 5 min, and the supernatant was discarded. 5-10 ml of DMEM medium was added to suspend the cells. The cells were slowly pipetted again, then subcultured in a 35 mm petri dish covered with glass slides, and transfected after 24 h.
# (§2) 2. Transfection: The cells were transfected by liposome transfection, where the transfection reagent was Lipofectamine 3000, and the materials used: Cav3 plasmid 1.5 μg, transfection enhancement factor (TAG) 0.25 μg, and enhanced green fluorescent protein (EGFP) 0.1 μg. 48-72 h after transfection, the whole-cell patch clamp technique was used to record fluorescent HEK293 cells, with 9-12 cells per group.
# (§3) The base sequences of Cav3.1, Cav3.2 and Cav3.3 plasmids were verified by gene sequencing and confirmed by DNA Star sequence analysis and alignment software that they are respectively consistent with the sequence Nos. NM_198376.3 (Cav3.1), NM_021098.3 (Cav3.2) and NM_021096.4 (Cav3.3) published in the NCBI database.
# (§4) At room temperature, Multiclamp700B amplifier was used for whole-cell voltage clamp recording. The glass electrode was a drawn electrode, and the resistance of the electrode filled with intracellular fluid was 3-5 MΩ. DigiData1322A was converted into a digital signal in pClamp10.2 software. The series resistance compensation was 70-80%. The stimulating square wave was depolarized to −30 mV with a clamping voltage of −90 mV, and then returned to the clamping potential level. The current amplitude of the T-type calcium channel at this time was recorded.
# (§5) Internal pipette solution: 110 cesium chloride, 4 magnesium-ATP, 0.3 sodium-GTP, 25 HEPES, 10 EGTA. External pipette solution: 5 barium chloride, 140 tetraethylamine chloride, 5 cesium chloride, 0.5 magnesium chloride, 5.5 glucose, 10 HEPES. […]
# [2] = system: trigeminal ganglion neurons; experiment: Firing of neuronal action potential in acutely dissociated rat trigeminal ganglion neurons (current clamp); assay type: cell-based; settings: 10 μM miloxacin, 180 pA for 1 sec; control 13.3±1.5
# Protocol: The process was the same as that in Example 2. At room temperature, Multiclamp 700B amplifier was used for whole-cell current clamp recording. A current of 180 pA was injected into the cell for 1 sec to stabilize the cell at −70 mV, and the frequency of the generated action potential was recorded. Internal pipette solution: 10 sodium chloride, 110 potassium chloride, 2 EGTA, 25 HEPES, 0.5 sodium-GTP, 4 magnesium-ATP. External pipette solution: 2 potassium chloride, 128 sodium chloride, 2 calcium chloride, 2 magnesium chloride, 30 glucose, 25 HEPES. The unit is mM, that is, millimoles/liter. 10 μM miloxacin was directly administered to the T-type calcium channel in the trigeminal ganglion neurons as the treatment group. The groups before miloxacin administration were used as control groups.
# [3] = molecular target: T2, T-type calcium channel subtype Cav3.3 (Homo sapiens, UniProt Q9P0X4); experiment: Whole-cell voltage clamp of Cav3.3 current in transfected HEK293 cells; assay type: cell-based; settings: 10 μM miloxacin, step -90 mV to -30 mV
# T2 construct: expressed in transfected cells; host or cells: HEK293 cells
# Protocol: as §1
# 2. Transfection: The cells were transfected by liposome transfection, where the transfection reagent was Lipofectamine 3000, and the materials used: Cav3 plasmid 1.5 μg, transfection enhancement factor (TAG) 0.25 μg, and enhanced green fluorescent protein (EGFP) 0.1 μg. 48-72 h after transfection, the whole-cell patch clamp technique was used to record fluorescent HEK293 cells, with 9-12 cells per group. […]
# At room temperature, Multiclamp700B amplifier was used for whole-cell voltage clamp recording. […] The current amplitude of the T-type calcium channel at this time was recorded. […]
# [4] = system: CFA-induced inflammatory pain model rats; experiment: Facial pain threshold of CFA-induced inflammatory pain model rats (von Frey); assay type: in vivo, rat; settings: day 2 after CFA; for effect on facial pain threshold (mechanical hyperalgesia), CFA model: at 3 h
# Protocol: Adult healthy male SD rats weighed 200-250 g were used. Before the experiment, the animals were allowed to acclimate to the breeding environment for three days. The model was established by a routine laboratory method. CFA was injected subcutaneously into the rat's facial whisker pad at a dose of 20 μl/mouse. Individuals with hyperalgesia and swelling of […] on day 2 after CFA injection were used as the experimental subjects, that is, the rats in the experiment group. Before the behavioral test, the rats were housed in a plexiglass box on a wire mesh frame to acclimate to the environment for three consecutive days, for 1 h each time. Test method: The middle part of the whisker pad was stimulated with von Frey filament at 1 g. If there were 3 escapes in 5 consecutive stimulations, the response was positive. Then, the same operation was repeated with von Frey filament at a lower level of intensity. If there was no positive response, the middle part of the whisker pad was stimulated with von Frey filament at a higher level of intensity. The minimum intensity at which a positive response occurs is taken as the facial pain threshold, that is, the facial mechanical pain threshold. It can be seen that CFA induction can lower the facial pain threshold of rats. • 3. Effect of miloxacin on the facial pain threshold of CFA-induced inflammatory pain model rats: 27 rats with CFA-induced inflammation obtained by the above method were divided into three groups, each having 9 rats. On day 2 after CFA induction, 10 nmol miloxacin was locally injected into the trigeminal ganglion of rats in the first group, 5 nmol miloxacin was locally injected into the trigeminal ganglion of rats in the second group, and the corresponding solvent DMSO was locally injected into the trigeminal ganglion of rats in the third group. After 1 h, 3 h, 6 h, 12 h, 18 h, and 24 h, the facial pain threshold of each group was detected. […] Study on the analgesic mechanism of miloxacin in CFA-induced inflammatory pain model rats: On day 2 after CFA induction, 2 nmol TTA-P2 was locally injected into the trigeminal ganglion, and then 10 nmol miloxacin was locally injected into the trigeminal ganglion after 30 min, which was used as the TTA-P2 group. The other group was injected with the corresponding solvent DMSO, and then administered with 10 nmol miloxacin by local injection 30 min later, which was used as the solvent group. TTA-P2 is a T-type calcium channel blocker, and the solvent for TTA-P2 is DMSO.
# CCI-ION model rats = experiment: Facial pain threshold of trigeminal neuropathic pain (CCI-ION) model rats (von Frey); assay type: in vivo, rat; settings: day 14 after model; for effect on facial pain threshold (mechanical hyperalgesia), CCI-ION model: at 3 h
# Protocol: Adult healthy male SD rats weighed 200-250 g were used. Before the experiment, the animals were allowed to acclimate to the breeding environment for three days. The rats were anesthetized with 4% chloral hydrate at an injection dose of 1 ml/100 g body weight. The tongue of the anesthetized rat in a supine position was pulled out and to the right to expose the left side of the mouth. At the level of the left maxillary first molar, a longitudinal incision of about 1 cm was cut along the gingival edge of the buccal aspect, and the tissue was bluntly isolated, to carefully expose the infraorbital nerve. The proximal and distal ends of the infraorbital nerve were loosely ligated with 5-0 suture, where the distance between the two ligatures was about 2 mm, and the tension was moderate. […] The process was the same as that in Example 4. It can be seen that CCI-ION can lower the facial pain threshold of rats. • 2. Effect of miloxacin on the facial pain threshold of CCI-ION model rats: 27 CCI-ION model rats obtained by the above method were divided into three groups, each having 9 rats. On day 14 after the CCI-ION model was established, 10 nmol miloxacin was locally injected into the trigeminal ganglion of rats in the first group, 5 nmol miloxacin was locally injected into the trigeminal ganglion of rats in the second group, and the corresponding solvent DMSO was locally injected into the trigeminal ganglion of rats in the third group. After 1 h, 3 h, 6 h, 9 h, 12 h, and 24 h, the facial pain threshold of each group was detected. […] Study on the analgesic mechanism of miloxacin in CCI-ION model rats: On day 14 after the CCI-ION model was established, 2 nmol TTA-P2 was locally injected into the trigeminal ganglion, and then 10 nmol miloxacin was locally injected into the trigeminal ganglion 30 min later, which was used as the TTA-P2 group. The other group was injected with the corresponding solvent DMSO, and then administered with 10 nmol miloxacin by local injection 30 min later, which was used as the solvent group.
# T-type calcium channel = T-type calcium channel current in acutely dissociated primary rat trigeminal ganglion neurons; assay type: cell-based
# Source text: Specifically, trigeminal ganglion neurons from adult male SD rats were acutely dissociated under the conditions of enzymatic hydrolysis of trigeminal ganglion neurons (Zhang Y et al., J Pineal Res, 2018, 64, e12476).
# The trigeminal ganglia of male SD rats weighed about 220 g were exposed after anesthesia. The bilateral trigeminal ganglia were taken by using microscopic dissecting forceps, removed of their fiber connections, and then immediately placed in ice-cold oxygenated DMEM medium. The trigeminal ganglion in the culture medium was transferred into 3 mg/ml collagenase digestion solution, cut into pieces with microscissors, and digested at 37° C. for 45 min, and then digested in 2 mg/ml trypsin digestion solution for another 15 min. After the above operations, the digestion was terminated by adding DMEM medium containing 10% fetal bovine serum. The cells were dispersed by repeatedly pipetting, and filtered through a 40 μm cell sieve. The resulting suspension was centrifuged at 800 rpm for 3 min. After centrifugation, the supernatant was discarded, and the cell pellet was resuspended in DMEM medium. After resuspension, the cell suspension was seeded on a cover glass pre-coated with polylysine in a 24-well culture plate, and placed in an incubator at 37° C. with 5% CO2 for later use.
# The process was the same as that in Example 1. […]
# [5] = molecular target: T3, T-type calcium channel subtype Cav3.2 (Homo sapiens, UniProt O95180); experiment: Whole-cell voltage clamp of Cav3.2 current in transfected HEK293 cells; assay type: cell-based
# T3 construct: expressed in transfected cells; host or cells: HEK293 cells
# T3 sequence (O95180 whole entry): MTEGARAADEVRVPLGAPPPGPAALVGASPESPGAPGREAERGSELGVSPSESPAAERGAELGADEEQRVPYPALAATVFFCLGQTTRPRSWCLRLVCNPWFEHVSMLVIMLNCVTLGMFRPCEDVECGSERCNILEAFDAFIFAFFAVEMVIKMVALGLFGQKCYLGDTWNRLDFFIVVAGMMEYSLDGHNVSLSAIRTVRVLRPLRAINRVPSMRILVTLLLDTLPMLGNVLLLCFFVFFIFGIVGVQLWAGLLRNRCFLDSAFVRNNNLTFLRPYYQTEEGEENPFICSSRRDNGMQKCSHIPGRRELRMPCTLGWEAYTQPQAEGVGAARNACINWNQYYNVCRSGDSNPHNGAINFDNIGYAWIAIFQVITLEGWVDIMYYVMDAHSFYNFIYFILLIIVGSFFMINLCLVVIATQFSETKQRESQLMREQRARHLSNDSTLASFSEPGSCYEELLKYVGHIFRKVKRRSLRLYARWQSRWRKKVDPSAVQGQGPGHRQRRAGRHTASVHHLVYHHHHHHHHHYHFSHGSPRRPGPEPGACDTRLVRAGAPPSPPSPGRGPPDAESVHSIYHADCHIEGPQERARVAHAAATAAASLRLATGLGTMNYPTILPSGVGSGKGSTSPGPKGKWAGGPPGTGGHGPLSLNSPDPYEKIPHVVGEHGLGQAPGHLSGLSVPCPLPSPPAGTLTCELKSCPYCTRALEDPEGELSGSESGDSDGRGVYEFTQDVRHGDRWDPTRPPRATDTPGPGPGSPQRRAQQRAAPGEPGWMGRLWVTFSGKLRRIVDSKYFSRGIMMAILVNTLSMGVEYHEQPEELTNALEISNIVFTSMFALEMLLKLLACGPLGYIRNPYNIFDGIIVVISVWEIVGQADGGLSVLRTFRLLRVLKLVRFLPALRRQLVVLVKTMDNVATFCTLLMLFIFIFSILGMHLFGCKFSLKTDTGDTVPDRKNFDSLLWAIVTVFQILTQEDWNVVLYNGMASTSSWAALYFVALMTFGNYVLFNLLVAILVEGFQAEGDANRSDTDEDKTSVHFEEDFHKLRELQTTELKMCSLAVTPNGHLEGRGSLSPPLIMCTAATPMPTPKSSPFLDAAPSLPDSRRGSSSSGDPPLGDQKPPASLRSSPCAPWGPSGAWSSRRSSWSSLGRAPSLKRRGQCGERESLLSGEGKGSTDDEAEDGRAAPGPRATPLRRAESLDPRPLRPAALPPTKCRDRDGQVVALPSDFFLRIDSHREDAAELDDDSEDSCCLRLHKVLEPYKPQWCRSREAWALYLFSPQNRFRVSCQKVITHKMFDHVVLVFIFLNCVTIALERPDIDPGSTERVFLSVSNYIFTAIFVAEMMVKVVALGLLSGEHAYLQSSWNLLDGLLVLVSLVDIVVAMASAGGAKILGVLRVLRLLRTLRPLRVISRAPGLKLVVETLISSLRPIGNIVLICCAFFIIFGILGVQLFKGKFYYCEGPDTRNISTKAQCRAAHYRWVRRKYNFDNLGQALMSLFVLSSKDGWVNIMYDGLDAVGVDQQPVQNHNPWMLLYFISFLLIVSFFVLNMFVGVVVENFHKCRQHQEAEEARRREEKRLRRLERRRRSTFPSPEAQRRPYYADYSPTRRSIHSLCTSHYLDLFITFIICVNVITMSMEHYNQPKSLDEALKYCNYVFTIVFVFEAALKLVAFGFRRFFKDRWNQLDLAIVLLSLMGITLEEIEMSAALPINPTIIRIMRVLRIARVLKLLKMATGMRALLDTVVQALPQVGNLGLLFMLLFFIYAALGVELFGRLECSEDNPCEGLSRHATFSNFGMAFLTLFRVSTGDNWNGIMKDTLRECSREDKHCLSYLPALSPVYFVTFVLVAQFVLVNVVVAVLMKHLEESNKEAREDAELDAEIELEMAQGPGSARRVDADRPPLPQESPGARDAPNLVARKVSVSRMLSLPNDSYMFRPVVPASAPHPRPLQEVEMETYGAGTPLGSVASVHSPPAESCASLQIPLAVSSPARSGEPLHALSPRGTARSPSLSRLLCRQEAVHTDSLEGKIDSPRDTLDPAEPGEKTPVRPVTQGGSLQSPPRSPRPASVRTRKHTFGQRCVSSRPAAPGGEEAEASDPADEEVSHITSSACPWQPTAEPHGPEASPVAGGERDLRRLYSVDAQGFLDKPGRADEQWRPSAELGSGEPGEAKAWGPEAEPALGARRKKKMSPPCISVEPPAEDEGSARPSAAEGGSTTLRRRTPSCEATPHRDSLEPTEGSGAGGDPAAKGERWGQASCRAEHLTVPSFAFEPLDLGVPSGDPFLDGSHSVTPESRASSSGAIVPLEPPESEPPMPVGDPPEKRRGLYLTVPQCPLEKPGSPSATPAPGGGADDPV
# Protocol: as §1, §2, §3, §4, §5
# [6] = 10 μM miloxacin, step -90 mV to -30 mV
# [7] = 5 nmol local injection into trigeminal ganglion
# [8] = 10 nmol local injection into trigeminal ganglion
# [9] = 10 nmol miloxacin 30 min after 2 nmol TTA-P2, trigeminal ganglion
# [10] = 2 nmol local injection into trigeminal ganglion
SMILES,effect on facial pain threshold of normal rats (normal rats),"inactivation constant V1/2 of subtype Cav3.1, left shift ([1]; 10 μM miloxacin vs. control) [mV]","subtype Cav3.1 current reduced compared to control [1, 6] [%]",IC50 ([1]; dose-effect curve) [µM],action potential (number in a 1-sec stimulation course) [2],subtype Cav3.3 current reduced compared to control [3] [%],"effect on facial pain threshold (mechanical hyperalgesia), CFA model [4, 7]","effect on facial pain threshold (mechanical hyperalgesia), CFA model [4, 8]","effect of miloxacin after TTA-P2 on facial pain threshold, CFA model [4, 9]","effect on facial pain threshold (mechanical hyperalgesia), CCI-ION model (CCI-ION model rats; [7])","effect on facial pain threshold (mechanical hyperalgesia), CCI-ION model (CCI-ION model rats; [8])","effect of miloxacin after TTA-P2 on facial pain threshold, CCI-ION model (CCI-ION model rats; [9])",T-type calcium channel current reduced compared to control (T-type calcium channel; 10 μM miloxacin) [%],IC50 (T-type calcium channel; dose-effect curve) [µM],"inactivation constant V1/2 of subtype Cav3.2, left shift ([5]; 10 μM miloxacin vs. control) [mV]","subtype Cav3.2 current reduced compared to control [5, 6] [%]",IC50 ([5]; dose-effect curve) [µM],"effect of TTA-P2 on facial pain threshold, CFA model [4, 10]","effect of TTA-P2 on facial pain threshold, CCI-ION model (CCI-ION model rats; [10])"
COn1cc(C(=O)O)c(=O)c2cc3c(cc21)OCO3 [miloxacin],does not affect the facial pain threshold,6.5±0.7,49.6±2.9,6.5 ± 0.9,6.1±0.3,2.1±0.7,significantly reversed mechanical hyperalgesia,significantly reversed mechanical hyperalgesia,does not further increase the facial pain threshold,significantly reversed mechanical hyperalgesia,significantly reversed mechanical hyperalgesia,does not further increase the facial pain threshold,52.7±2.6,7.7 ± 0.6,8.5±0.3,57.2±3.3,8.2 ± 0.6,,
"CC1(C)C[C@@H](CN2CCC(F)(CNC(=O)c3cc(Cl)cc(Cl)c3)CC2)CCO1 [TTA-P2, 3,5-dichloro-N-[[4-fluoro-1-[[(4S)-tetrahydro-2,2-dimethyl-2H-pyran-4-yl]methyl]-4-piperidine]methyl]benzamide]",,,,,,,,,,,,,,,,,,can increase the facial pain threshold,can increase the facial pain threshold

# From US12239640B2, “Use of miloxacin in preparation of medicines for treating and/or preventing diseases with T-type calcium channels as therapeutic target” (SOOCHOW UNIVERSITY, priority 2020, dated 2025)
